Reference: patent publication US20090023799A1, “CRYSTALS OF (2-AMINO-4,5,6,7-TETRAHYDROBENZO[b]THIEN-3-YL)(4-CHLOROPHENYL)METHANONE” (priority 2007, published 2009)
Converted amounts (≈) assume the structure as drawn. Where two headings read alike, the source gives them in different places. Each block holds one molecule with its values, some of them ahead of it.

Tests used:
[1] = Solid-state conversion of crystal forms on heating or humidity; format: physicochemical
adenosine A1 receptors = biological target: T1, adenosine A1 receptors (Homo sapiens, UniProt P30542); conditions: U.S. Pat. No. 6,248,774 and No. 6,489,356, cited from earlier work
T1 sequence (P30542 1-326): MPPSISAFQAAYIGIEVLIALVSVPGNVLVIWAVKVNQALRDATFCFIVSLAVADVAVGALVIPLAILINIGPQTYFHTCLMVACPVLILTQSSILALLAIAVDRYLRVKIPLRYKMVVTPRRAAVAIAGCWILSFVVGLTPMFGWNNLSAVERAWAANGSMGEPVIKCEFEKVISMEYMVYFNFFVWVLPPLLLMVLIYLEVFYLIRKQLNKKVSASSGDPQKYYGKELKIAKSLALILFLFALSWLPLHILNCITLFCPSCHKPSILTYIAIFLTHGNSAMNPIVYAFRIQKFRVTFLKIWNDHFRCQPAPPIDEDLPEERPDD

[2] = Moisture sorption/desorption analysis; format: physicochemical
Description: Moisture sorption/desorption analyses may be performed on a VTI SGA-100 Vapor Sorption Analyzer, or a similar instrument. Sorption and desorption data are collected, e.g., over a range of 5 to 95% relative humidity (RH) at 10% RH intervals under a nitrogen purge. Samples need not to be dried prior to analysis. Equilibrium criteria used for analysis are, e.g., less than 0.01% weight change in 5 min, with a maximum equilibration time of 3 h if the weight criterion is not met. NaCl and PVP may be used as calibration standards.

[3] = Approximate solubilities of Form I crystals of T-62 (solvent added until clear solution); format: physicochemical; conditions: RT
Description: Solubilities for Form I crystals of T-62 may be estimated based on total solvent used to give a clear solution. A test solvent, either reagent or HPLC (high pressure liquid chromatography) grade, is added in measured aliquots, e.g., 200 or 500 μL, to an accurately weighed sample of T-62 (typically 50 to 90 mg). For some samples, sonication is applied between solvent additions to aid dissolution. Generally, solvent is added until a clear solution is obtained. Actual solubilities may be greater than those shown in Table 7 because of the volume of the solvent portions utilized or a slow rate of dissolution.

[4] = Stability to mechanical grinding/milling (ball-milling, XRPD); format: physicochemical; conditions: XRPD analysis of the milled material
Source text: (§1) The crystal forms of T-62 are preferably substantially stable to grinding. Stability to grinding may be assessed by measurement of an appropriate physical property before and after grinding. Where the physical property remains substantially unchanged, substantial stability to grinding is indicated. Suitable physico-chemical properties for measurement include a melting point, a X-ray diffraction pattern, an infra red absorption spectrum and a Raman spectrum, particularly the X-ray diffraction pattern. For example, Form I crystal form of T-62 is stable to mechanical milling and cryogrinding as indicated by XRPD analyses of the milled and ground material, respectively.
Stability to mechanical grinding/milling may be tested, e.g., by employing a small stainless steel cylinder. The cylinder is charged with a weighted amount of a crystal form of T-62 and a stainless steel ball is added, the cylinder is capped and the unit is placed on a Retsch Mixer Mill (Type MM 200) for a total of 3 min at a frequency of 30/s (ball-milling).

[5] = Stability to cryogrinding (XRPD); format: physicochemical; conditions: XRPD analysis of the ground material
Source text: as §1
Stability to cryogrinding may be tested, e.g., by employing a polycarbonate freezer mill tube. The tube is charged with a weighted amount of a crystal form of T-62 and a stainless steel rod is added, the tube is capped and the unit is shaken in a SPEX Certiprep 6750 Freezer Mill for a total of 0.6 min in liquid nitrogen at a rate of 10 Hz.

- Crystal form conversion on heating ([1]; heating to about 104° C. under argon purge): converted to the Form I crystal form
- Crystal form conversion under high humidity ([1]; high humidity, solvent is lost): converts to Form I crystal form
- Crystal form conversion upon heating ([1]; upon heating): converts to Form I crystals
Structure (SMILES): Nc1sc2c(c1C(=O)c1ccc(Cl)cc1)CCCC2 [Form III, (2-amino-4,5,6,7-tetrahydrobenzo[b]thiophen-3-yl)(4-chlorophenyl)methanone]

Structure (SMILES): Nc1sc2c(c1C(=O)c1ccc(Cl)cc1)CCCC2 [Form T-62, (2-amino-4,5,6,7-tetrahydrobenzo[b]thiophen-3-yl)(4-chlorophenyl)methanone]
- Adverse side effects associated with administration of adenosine (adenosine A1 receptors): devoid of the adverse side effects
- Effect on inflammatory and neuropathic pain (adenosine A1 receptors; orally effective): reduce inflammatory and neuropathic pain

- Weight gain in moisture sorption/desorption analysis ([2]; at 95% RH): 0.1%
Structure (SMILES): Nc1sc2c(c1C(=O)c1ccc(Cl)cc1)CCCC2 [Form II, (2-amino-4,5,6,7-tetrahydrobenzo[b]thiophen-3-yl)(4-chlorophenyl)methanone]

- solubility ([3]; water): practically insoluble
- solubility ([3]; aqueous with cosolvent or surfactant or cyclodextrin, thermodynamic from solid, ACN:H2O - 1:1, read-out: Solubility): 8.4 mg/mL (≈ 28.8 mM)
- solubility ([3]; organic solvent or mixture, thermodynamic from solid, ACN, read-out: Solubility): 11.1 mg/mL (≈ 38 mM)
- solubility ([3]; organic solvent or mixture, thermodynamic from solid, CHCl3, read-out: Solubility): 175 mg/mL (≈ 598 mM)
- solubility ([3]; organic solvent or mixture, thermodynamic from solid, EtOAc, read-out: Solubility): 67.8 mg/mL (≈ 232 mM)
- solubility ([3]; organic solvent or mixture, thermodynamic from solid, EtOH:H2O - 95:5, read-out: Solubility): 12.8 mg/mL (≈ 43.9 mM)
- solubility ([3]; organic solvent or mixture, thermodynamic from solid, EtOH, read-out: Solubility): 16.6 mg/mL (≈ 56.9 mM)
- solubility ([3]; organic solvent or mixture, thermodynamic from solid, IPA, read-out: Solubility): 13.1 mg/mL (≈ 44.9 mM)
- solubility ([3]; organic solvent or mixture, thermodynamic from solid, MEK, read-out: Solubility): 132 mg/mL (≈ 453 mM)
- solubility ([3]; organic solvent or mixture, thermodynamic from solid, MeOH:H2O - 95:5, read-out: Solubility): 8.7 mg/mL (≈ 29.8 mM)
- solubility ([3]; organic solvent or mixture, thermodynamic from solid, MeOH, read-out: Solubility): 19.8 mg/mL (≈ 67.9 mM)
- solubility ([3]; organic solvent or mixture, thermodynamic from solid, N,N-dimethylformamide (DMF), read-out: Solubility): 129 mg/mL (≈ 441 mM)
- solubility ([3]; organic solvent or mixture, thermodynamic from solid, THF, read-out: Solubility): 338 mg/mL (≈ 1160 mM)
- solubility ([3]; organic solvent or mixture, thermodynamic from solid, acetone, read-out: Solubility): 59.8 mg/mL (≈ 205 mM)
- solubility ([3]; organic solvent or mixture, thermodynamic from solid, cyclohexane, read-out: Solubility): 9.8 mg/mL (≈ 33.6 mM)
- solubility ([3]; organic solvent or mixture, thermodynamic from solid, di-n-butyl ether, read-out: Solubility): 21.4 mg/mL (≈ 73.3 mM)
- solubility ([3]; organic solvent or mixture, thermodynamic from solid, dichloromethane, read-out: Solubility): 85.3 mg/mL (≈ 292 mM)
- solubility ([3]; organic solvent or mixture, thermodynamic from solid, diisopropyl ether, read-out: Solubility): 5.9 mg/mL (≈ 20.2 mM)
- solubility ([3]; organic solvent or mixture, thermodynamic from solid, dimethylsulfoxide (DMSO), read-out: Solubility): 183 mg/mL (≈ 626 mM)
- solubility ([3]; organic solvent or mixture, thermodynamic from solid, dioxane, read-out: Solubility): 74.9 mg/mL (≈ 257 mM)
- solubility ([3]; organic solvent or mixture, thermodynamic from solid, hexanes, read-out: Solubility): 5.6 mg/mL (≈ 19.2 mM)
- solubility ([3]; organic solvent or mixture, thermodynamic from solid, nitromethane, read-out: Solubility): 12 mg/mL (≈ 41.1 mM)
- solubility ([3]; organic solvent or mixture, thermodynamic from solid, octanol, read-out: Solubility): 19.7 mg/mL (≈ 67.5 mM)
- solubility ([3]; organic solvent or mixture, thermodynamic from solid, toluene, read-out: Solubility): 45.7 mg/mL (≈ 157 mM)
- Crystal form after moisture sorption/desorption analysis [2]: remains the same
- Weight gain or loss in moisture sorption/desorption analysis [2]: no significant weight gain or loss
- Hygroscopicity ([2]; moisture sorption/desorption analysis): non-hygroscopic
- Stability to mechanical milling [4]: stable
- Stability to cryogrinding [5]: stable
Structure (SMILES): Nc1sc2c(c1C(=O)c1ccc(Cl)cc1)CCCC2 [Form I, (2-amino-4,5,6,7-tetrahydrobenzo[b]thiophen-3-yl)(4-chlorophenyl)methanone]

- Crystal form conversion on heating ([1]; heating for 2 min at 75° C. in a sealed capillary): converted to the Form IV crystal form
Structure (SMILES): Nc1sc2c(c1C(=O)c1ccc(Cl)cc1)CCCC2 [Form IV, (2-amino-4,5,6,7-tetrahydrobenzo[b]thiophen-3-yl)(4-chlorophenyl)methanone]
